Data on 12 compounds can be found in patent publication US7485631B2, “Phorboxazole compounds and methods of their preparation” (The Trustees of the University of Pennsylvania, priority 2005, dated 2009).

For data set [1] the following is noted: other bond, K2CO3/18-crown-6, toluene, 25.0 °C.
For data set [2], the system named is National Cancer Institute's (NCI) panel of 60 human tumor cell lines. To be noted: mean over the entire NCI 60 human tumor cell line panel; cited from earlier work.
Data set [3] has as its system human cancer cell lines BXP-3, MCF-3, F-268, NCl-H460, KM20L2, DU-145. Kind of data set: Cancer growth inhibition, average over the six human cancer cell line panel. It counts as cell-based. To be noted: for GI50: Homo sapiens, average over six human cancer cell lines; for tumor cell growth inhibitory activity compared with (+)-phorboxazole A (in words): summary of the six cell line panel. On the procedure:
(§1) With (+)-phorboxazole A (XVIII) and the eight phorboxazole analogues in hand, biological evaluation against a diverse panel of human cancer cell lines was conducted in the laboratory of Professor George R. Pettit at the Cancer Research Institute of Arizona State University. Specifically, cancer growth inhibition efficacy was evaluated against the human cancer cell lines; BXP-3 (pancreatic), MCF-3 (breast), F-268 (CNS), NCl-H460 (non-small lung), KM20L2 (colon), and DU-145 (prostate) (Smith, et al. Org. Lett. 2005, 7, 4403; Smith, et al. Org. Lett. 2005, 8, 797).

The subject of data set [4] is NCl-H460 (non-small lung). Kind of data set: Cancer growth inhibition, non-small lung cancer cell line. The class given is cell-based. To be noted: Homo sapiens. The method, then: as §1
For the next data set, the system named is KM20L2 (colon). The experiment in a line: Cancer growth inhibition, colon cancer cell line. The class given is cell-based. To be noted: Homo sapiens, KM-20L2. On the procedure: as §1
The next data set deals with BXP-3 (pancreatic). Kind of data set: Cancer growth inhibition, pancreatic cancer cell line. To be noted: Homo sapiens. The class given is cell-based. The method, then:
as §1

Another data set relates to F-268 (CNS). The experiment in a line: Cancer growth inhibition, CNS cancer cell line. To be noted: Homo sapiens. The class given is cell-based. On the procedure: as §1
The test system of the next data set is MCF-3 (breast). The experiment in a line: Cancer growth inhibition, breast cancer cell line. To be noted: Homo sapiens. The class given is cell-based. On the procedure:
as §1

Where two headings read alike, the source gives them in different places.

`C=C1C[C@@H]2C[C@@H]3CCO[C@@H](O3)c3coc(n3)/C=C/C[C@H]3O[C@@H](/C(C)=C/I)[C@H](C)[C@@H](OC(=O)/C=C\C[C@@H](C1)O2)[C@H]3C` returned a ring closure, yield of all isomers in data set [1] (from C=C1C[C@H](C[C@@H]2CCO[C@H](c3coc(/C=C/C[C@H]4O[C@@H](/C(C)=C/I)[C@H](C)[C@@H](OC(=O)CP(=O)(OCC(F)(F)F)OCC(F)(F)F)[C@H]4C)n3)O2)O[C@@H](CC=O)C1, 0.74 mM, 2.0 h) of 86%.

With `C=C1C[C@@H]2C[C@@H]3C[C@@H](O[Si](C)(C)C(C)(C)C)C[C@@H](O3)c3coc(n3)/C=C/C[C@H]3O[C@@H](/C(C)=C/I)[C@H](C)[C@@H](OC(=O)/C=C\C[C@@H](C1)O2)[C@H]3C`, in data set [1] (from C=C1C[C@H](C[C@@H]2C[C@@H](O[Si](C)(C)C(C)(C)C)C[C@H](c3coc(/C=C/C[C@H]4O[C@@H](/C(C)=C/I)[C@H](C)[C@@H](OC(=O)CP(=O)(OCC(F)(F)F)OCC(F)(F)F)[C@H]4C)n3)O2)O[C@@H](CC=O)C1, 0.706 mM, 3.0 h), the ring closure, yield of all isomers worked out at 96%.

`C=C1C[C@@H]2C[C@H]3C[C@@H](O)C[C@H](O3)c3coc(n3)/C=C\C[C@H]3O[C@@H](/C(C)=C/c4coc(C[C@]5(O)C[C@H](OC)C[C@H]([C@H](O)/C=C(C)/C=C/[C@@H](C/C=C/Br)OC)O5)n4)[C@H](C)[C@@H](OC(=O)/C=C\C[C@@H](C1)O2)[C@H]3C` [(+)-Phorboxazole B, Phorboxazole B]: in data set [2], the 50% growth inhibitory concentration (GI50) is 1.58 nM.

For the compound `C=C1C[C@@H]2C[C@@H]3C[C@@H](O)C[C@@H](O3)c3coc(n3)/C=C/C[C@H]3O[C@@H](/C(C)=C/c4coc(C[C@]5(O)C[C@H](OC)C[C@H]([C@H](O)/C=C(C)/C=C/[C@@H](C/C=C/Br)OC)O5)n4)[C@H](C)[C@@H](OC(=O)/C=C\C[C@@H](C1)O2)[C@H]3C` [XVIII, Phorboxazole A, reference compound], the figures for the GI50 in data set [2] and in data set [3] were 1.58 nM and 5 nM, respectively.

The compound `C#CC[C@H](/C=C/C(C)=C/[C@@H](O)[C@H]1C[C@@H](OC)C[C@@](O)(Cc2nc(/C=C(\C)[C@@H]3O[C@@H]4C/C=C/c5nc(co5)[C@H]5C[C@H](O)C[C@@H](C[C@H]6CC(=C)C[C@H](C/C=C/C(=O)O[C@@H]([C@H]4C)[C@H]3C)O6)O5)co2)O1)OC` [XVIIaE, E-C(2-3)-C(45-46)-Alkynyl-Phorboxazole] came in with a GI50 in data set [3] of 281 nM.

Turning to `C#CC[C@H](/C=C/C(C)=C/[C@@H](O)[C@H]1C[C@@H](OC)C[C@@](O)(Cc2nc(/C=C(\C)[C@@H]3O[C@@H]4C/C=C/c5nc(co5)[C@H]5C[C@H](O)C[C@@H](C[C@H]6CC(=C)C[C@H](C/C=C\C(=O)O[C@@H]([C@H]4C)[C@H]3C)O6)O5)co2)O1)OC` [XVIIaZ, C(45-46)-Alkynyl-Phorboxazole], in data set [3], it took 5.2 nM to inhibit growth by half (GI50) and the “tumor cell growth inhibitory activity compared with (+)-phorboxazole A (in words)” value was “activity comparable to that of (+)-phorboxazole A”.

Consider `C=C1C[C@@H]2C[C@@H]3C[C@@H](O)C[C@@H](O3)c3coc(n3)/C=C/C[C@H]3O[C@@H](/C(C)=C/c4coc(C[C@]5(O)C[C@H](OC)C[C@H]([C@H](O)/C=C(C)/C=C/[C@@H](CCC)OC)O5)n4)[C@H](C)[C@@H](OC(=O)/C=C\C[C@@H](C1)O2)[C@H]3C` [XVIIb, C(45-46)-Alkyl-Phorboxazole], for which the GI50 came out at 1.6 nM in data set [4], 3.1 nM in data set [3] and 1.3 nM with KM20L2 (colon). The “tumor cell growth inhibitory activity compared with (+)-phorboxazole A (in words)” value in data set [3] is recorded as “activity comparable to that of (+)-phorboxazole A”.

Regarding `C=CC[C@H](/C=C/C(C)=C/[C@@H](O)[C@H]1C[C@@H](OC)C[C@@](O)(Cc2nc(/C=C(\C)[C@@H]3O[C@@H]4C/C=C/c5nc(co5)[C@H]5C[C@H](O)C[C@@H](C[C@H]6CC(=C)C[C@H](C/C=C\C(=O)O[C@@H]([C@H]4C)[C@H]3C)O6)O5)co2)O1)OC` [XVIIc, C(45-46)-Alkenyl-Phorboxazole], in data set [3], the concentration for 50% growth inhibition (GI50) stood at 4.1 nM and the “tumor cell growth inhibitory activity compared with (+)-phorboxazole A (in words)” value is reported as “activity comparable to that of (+)-phorboxazole A”.

On to `C=C1C[C@@H]2C[C@@H]3C[C@@H](O)C[C@@H](O3)c3coc(n3)/C=C/C[C@H]3O[C@@H](/C(C)=C/c4coc(C[C@]5(O)C[C@H](OC)C[C@H]([C@H](O)/C=C(C)/C=C/[C@@H](C/C=C/Cl)OC)O5)n4)[C@H](C)[C@@H](OC(=O)/C=C\C[C@@H](C1)O2)[C@H]3C` [XVIId, C(45-46)-E-Chloroalkenyl-Phorboxazole], for which the concentration for 50% growth inhibition (GI50) with BXP-3 (pancreatic) stood at 0.62 nM; in data set [4], 0.64 nM; in the data set with F-268 (CNS), 0.49 nM; in the data set with KM20L2 (colon), 0.38 nM. For the same compound, the “tumor cell growth inhibitory activity compared with (+)-phorboxazole A (in words)” value in data set [3] was “activity greater than that of (+)-phorboxazole A”.

For the compound `C=CC[C@H](/C=C/C(C)=C/[C@@H](O)[C@H]1C[C@@H](OC)C[C@](Cc2nc(/C=C(\C)[C@@H]3O[C@H](CCO)[C@H](C)[C@H](OCc4ccc(OC)c(OC)c4)[C@H]3C)co2)(OC)O1)OC` [XVIIe, C(45-46)-Alkenyl-C(22-26)-Central Tetrahydropyran Phorboxazole], in data set [3] (six human cancer cell lines), the “activity across the entire cell line panel (in words)” value was “inactive”.

In data set [3], `C#CC[C@H](/C=C/C(C)=C/[C@@H](O)[C@H]1C[C@@H](OC)C[C@@](O)(Cc2nc(/C=C(\C)[C@@H]3O[C@@H]4C/C=C/c5nc(co5)[C@H]5OCC[C@@H](C[C@H]6CC(=C)C[C@H](C/C=C/C(=O)O[C@@H]([C@H]4C)[C@H]3C)O6)O5)co2)O1)OC` [XVIIfE, E-C(2-3) C(11-15)-Acetal Alkynyl Phorboxazole] came in with a GI50 of 944 nM.

Turning to `C#CC[C@H](/C=C/C(C)=C/[C@@H](O)[C@H]1C[C@@H](OC)C[C@@](O)(Cc2nc(/C=C(\C)[C@@H]3O[C@@H]4C/C=C/c5nc(co5)[C@H]5OCC[C@@H](C[C@H]6CC(=C)C[C@H](C/C=C\C(=O)O[C@@H]([C@H]4C)[C@H]3C)O6)O5)co2)O1)OC` [XVIIfZ, Z-C(2-3) C(11-15)-Acetal Alkynyl Phorboxazole], the concentration for 50% growth inhibition (GI50) in data set [3] worked out at 34.6 nM; in the data set on MCF-3 (breast), 18.3 nM; in the data set on KM20L2 (colon), 11.8 nM.

Usually GI50 stands for the concentration that inhibits growth by half.
